Test results taken from paper PMC9854728, “Synthesis and Antioxidant Properties of Novel 1,2,3-Triazole-Containing Nitrones” (Antioxidants, 2022).
Read-outs that look alike come from different tables or passages of the source.

Key:
[1] = Inhibition of linoleic acid peroxidation (ILP) induced by AAPH; settings: tested at 100 µM, 37 °C
Procedure: (§1) The in vitro antioxidant assays for nitrones 8 and 9 were performed concentrations of 100 µM (from a stock solution 10 mM in 0.1% DMSO in deionized water). Several dilutions were made when the determination of IC50 values was needed. All the determinations were made, at least in triplicate, and the standard deviation of absorbance was less than 10% of the mean. The nitrones were diluted under sonification in the appropriate buffer in several dilutions (Table 1).
The production of conjugated diene hydroperoxide by the oxidation of linoleate sodium 16 mM linoleate sodium (10 µL) in an aqueous solution is monitored at 234 nm. AAPH 40 mM (50 µL) is used as a free radical initiator at 37 °C under air conditions, followed by the tested nitrones. This assay can be used to follow oxidative changes by recording the absorbance values at 234 nm, using Trolox as a reference compound. The experimental procedure follows our previously reported protocol.

[2] = biological target: T1, soybean lipoxygenase (LOX) (Glycine max, UniProt P08170); assay: In vitro inhibition of soybean lipoxygenase (LOX); format: biochemical; settings: for inhibition at 100 µM / LOX Inhibition (%): tested at 100 µM, no = no activity under the experimental conditions; for LOX Inhibition (%): 100 µM
T1 construct: purchased Aldrich Chemical Co. (Milwaukee, WI, USA)
T1 sequence (P08170 1-839): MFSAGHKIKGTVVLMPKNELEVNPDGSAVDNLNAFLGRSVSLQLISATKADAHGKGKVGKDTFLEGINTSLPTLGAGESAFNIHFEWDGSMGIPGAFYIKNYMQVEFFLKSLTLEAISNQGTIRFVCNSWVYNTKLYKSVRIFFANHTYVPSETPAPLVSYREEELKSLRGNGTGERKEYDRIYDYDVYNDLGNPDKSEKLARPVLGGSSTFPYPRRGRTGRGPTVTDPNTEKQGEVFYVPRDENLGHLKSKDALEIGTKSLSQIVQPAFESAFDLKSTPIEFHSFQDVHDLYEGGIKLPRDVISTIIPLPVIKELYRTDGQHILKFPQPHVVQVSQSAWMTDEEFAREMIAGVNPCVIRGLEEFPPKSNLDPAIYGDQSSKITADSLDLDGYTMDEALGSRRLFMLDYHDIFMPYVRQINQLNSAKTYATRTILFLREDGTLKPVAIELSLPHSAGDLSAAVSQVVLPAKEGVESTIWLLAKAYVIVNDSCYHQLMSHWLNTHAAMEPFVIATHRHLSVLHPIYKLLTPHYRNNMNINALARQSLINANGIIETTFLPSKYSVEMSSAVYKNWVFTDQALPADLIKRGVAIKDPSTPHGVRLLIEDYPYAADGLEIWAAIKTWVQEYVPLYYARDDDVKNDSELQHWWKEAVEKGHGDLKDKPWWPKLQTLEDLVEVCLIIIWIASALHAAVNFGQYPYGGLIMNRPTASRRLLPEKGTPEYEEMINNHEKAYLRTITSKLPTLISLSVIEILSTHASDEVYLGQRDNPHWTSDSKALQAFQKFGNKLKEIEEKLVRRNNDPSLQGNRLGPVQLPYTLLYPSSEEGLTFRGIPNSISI
Procedure: as §1, with “All the determinations were made, at least in triplicate, and the standard deviation of absorbance was less than 10% of the mean.” left out
The in vitro study was evaluated as reported previously. Compounds 8a–f or 9a–f (10 μL) were incubated at rt with sodium linoleate (0.1 mM) and 200 μL of enzyme solution (1/9 × 10^–4 w/v in saline). Tris buffer pH 9 was inserted. The conversion of sodium linoleate to 13-hydroperoxylinoleic acid was recorded at 234 nm. […] Several dilutions of compounds were used for the determination of IC50 values. Blank determination served as the negative control.

[3] = Competition with DMSO for hydroxyl radicals; settings: tested at 100 µM, Fe3+/ascorbic acid system, 37 °C, 30 min; no = no activity
Procedure: as §1
The hydroxyl radicals, produced by the Fe^3+/ascorbic acid system, were detected by the determination of formaldehyde produced from the oxidation of DMSO [8]. Solutions of EDTA (0.1 mM), Fe^3+ (167 μM), DMSO (33 mM) in phosphate buffer (50 mM, pH 7.4), as well as the tested compounds (10 μL final concentration 100 μM) and ascorbic acid (10 mM) were mixed in test tubes and incubated at 37 °C for 30 min. The reaction was stopped by adding CCl3COOH (17% w/v), and the % competition activity of the nitrones 8 and 9 with DMSO for hydroxyl radicals was calculated. Trolox was used as a positive control.

[4] = ABTS radical cation decolorization assay; settings: tested at 100 µM, 1 min, 734 nm; no = no activity
Procedure: as §1
ABTS stock solution in water (7 mM) was mixed with potassium persulfate (2.45 mM) and left in the dark at rt for 12–16 h before use, followed by the production of the ABTS radical cation (ABTS^+·). The assay was performed as described previously. The results were recorded after 1 min of the mixing solutions at 734 nm. Trolox was used as a positive control.

[5] = soybean LOX, sodium linoleate 0.1 mM, Tris buffer pH 9, read-out: LOX Inhibition IC50

Compound	melting point [°C]	ILP (%) [1] [%]	IC50 [2, 5] [µM]	Scavenging Activity for HO• (%) [3]	ABTS+• (%) [4]	inhibition at 100 µM [2] [%]	LOX Inhibition (%) [2]	IC50 [2] [µM]	LOX Inhibition IC50 ([2]; soybean LOX, sodium linoleate 0.1 mM, Tris buffer pH 9)	LOX inhibition, fold less potent than NDGA ([2]; IC50 27 μM vs NDGA […]) [fold]
C[N+]([O-])=CCn1cc(-c2ccccc2)nn1 [Nitrone 8a, N-(2-(4-Phenyl-1H-1,2,3-Triazol-1-yl)Ethylidene)Methanamine Oxide]	97 to 98	48.4	37.5	93%	14%	–	–	–	–	–
C[N+]([O-])=CCn1cc(-c2ccccc2F)nn1 [Nitrone 8b, N-(2-(4-(2-Fluorophenyl)-1H-1,2,3-Triazol-1-yl)Ethylidene)Methanamine Oxide]	125 to 126	2	–	61%	13%	24	–	–	–	–
C[N+]([O-])=CCn1cc(-c2cccc(F)c2)nn1 [Nitrone 8c, N-(2-(4-(3-Fluorophenyl)-1H-1,2,3-Triazol-1-yl)Ethylidene)Methanamine Oxide]	158 to 160	65	–	59%	no	40	–	–	–	–
C[N+]([O-])=CCn1cc(-c2ccc(F)cc2)nn1 [Nitrone 8d, N-(2-(4-(4-Fluorophenyl)-1H-1,2,3-Triazol-1-yl)Ethylidene)Methanamine Oxide]	165 to 167	54	–	80%	5.3%	–	loses its activity and no	–	–	–
C[N+]([O-])=CCn1cc(-c2ccc(F)cc2F)nn1 [Nitrone 8e, N-(2-(4-(2,4-Difluorophenyl)-1H-1,2,3-Triazol-1-yl)Ethylidene)Methanamine Oxide]	122 to 123	87	–	76%	no	–	–	87.5	–	–
Cc1cc(-c2cn(CC=[N+](C)[O-])nn2)ccc1F [Nitrone 8f, N-(2-(4-(4-Fluoro-3-Methylphenyl)-1H-1,2,3-Triazol-1-yl)Ethylidene)Methanamine Oxide]	171 to 173	41	–	91.5%	34.3%	44	–	–	–	–
CC(C)(C)[N+]([O-])=CCn1cc(-c2ccccc2)nn1 [Nitrone 9a, 2-Methyl-N-(2-(4-Phenyl-1H-1,2,3-Triazol-1-yl)Ethylidene)Propan-2-Amine Oxide]	91 to 93	74.5	–	76%	4%	44	–	–	–	–
CC(C)(C)[N+]([O-])=CCn1cc(-c2ccccc2F)nn1 [Nitrone 9b, N-(2-(4-(2-Fluorophenyl)-1H-1,2,3-Triazol-1-yl)Ethylidene)-2-Methylpropan-2-Amine Oxide]	72 to 73	73	40	76%	no	–	–	–	–	–
CC(C)(C)[N+]([O-])=CCn1cc(-c2cccc(F)c2)nn1 [Nitrone 9c, N-(2-(4-(3-Fluorophenyl)-1H-1,2,3-Triazol-1-yl)Ethylidene)-2-Methylpropan-2-Amine Oxide]	94 to 95	–	–	89%	no	–	no inhibition and no	–	–	–
CC(C)(C)[N+]([O-])=CCn1cc(-c2ccc(F)cc2)nn1 [Nitrone 9d, N-(2-(4-(4-Fluorophenyl)-1H-1,2,3-Triazol-1-yl)Ethylidene)-2-Methylpropan-2-Amine Oxide]	128 to 131	–	100	99%	no	–	–	–	–	–
CC(C)(C)[N+]([O-])=CCn1cc(-c2ccc(F)cc2F)nn1 [Nitrone 9e, N-(2-(4-(2,4-Difluorophenyl)-1H-1,2,3-Triazol-1-yl)Ethylidene)-2-Methylpropan-2-Amine Oxide]	122 to 123	100	100	100%	no	–	–	–	equipotent to the 9d	–
Cc1cc(-c2cn(CC=[N+]([O-])C(C)(C)C)nn2)ccc1F [Nitrone 9f, N-(2-(4-(4-Fluoro-3-Methylphenyl)-1H-1,2,3-Triazol-1-yl)Ethylidene)-2-Methylpropan-2-Amine Oxide]	104 to 107	87	27	99.9%	16%	–	–	–	–	60
CC(C)(C)/[N+]([O-])=C/c1ccccc1 [PBN, (Z)-N-tert-butyl-1-phenylmethanimine oxide, reference compound]	–	11	–	no	5%	–	–	–	–	–
Cc1c(C)c2c(c(C)c1O)CCC(C)(C(=O)O)O2 (stereo not drawn) [Trolox, reference compound]	–	93	–	88%	91%	–	–	–	–	–
